Target: LRRK2 G2019S enzyme (Homo sapiens (Human), UniProt Q5S007, G2019S)
Assay: LRRK2 G2019S TR-FRET biochemical kinase assay (LRRKtide substrate)
Details: 5 nM LRRK2, 134 μM ATP, 60 minute reaction, 23° C.
How it was run: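 TR-FRET phospho-LRRKtide readout (2 nM antibody, 10 mM EDTA, 60 min) after a 60 min, 23 °C kinase reaction. The reaction used 134 μM ATP and 5 nM enzyme in pH 7.5 Tris/MgCl2/EGTA/DTT buffer, with compound and enzyme-substrate mix preincubated for 20 min beforehand.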

LRRK2 G2019S enzyme, sequence (Q5S007 whole entry G2019S): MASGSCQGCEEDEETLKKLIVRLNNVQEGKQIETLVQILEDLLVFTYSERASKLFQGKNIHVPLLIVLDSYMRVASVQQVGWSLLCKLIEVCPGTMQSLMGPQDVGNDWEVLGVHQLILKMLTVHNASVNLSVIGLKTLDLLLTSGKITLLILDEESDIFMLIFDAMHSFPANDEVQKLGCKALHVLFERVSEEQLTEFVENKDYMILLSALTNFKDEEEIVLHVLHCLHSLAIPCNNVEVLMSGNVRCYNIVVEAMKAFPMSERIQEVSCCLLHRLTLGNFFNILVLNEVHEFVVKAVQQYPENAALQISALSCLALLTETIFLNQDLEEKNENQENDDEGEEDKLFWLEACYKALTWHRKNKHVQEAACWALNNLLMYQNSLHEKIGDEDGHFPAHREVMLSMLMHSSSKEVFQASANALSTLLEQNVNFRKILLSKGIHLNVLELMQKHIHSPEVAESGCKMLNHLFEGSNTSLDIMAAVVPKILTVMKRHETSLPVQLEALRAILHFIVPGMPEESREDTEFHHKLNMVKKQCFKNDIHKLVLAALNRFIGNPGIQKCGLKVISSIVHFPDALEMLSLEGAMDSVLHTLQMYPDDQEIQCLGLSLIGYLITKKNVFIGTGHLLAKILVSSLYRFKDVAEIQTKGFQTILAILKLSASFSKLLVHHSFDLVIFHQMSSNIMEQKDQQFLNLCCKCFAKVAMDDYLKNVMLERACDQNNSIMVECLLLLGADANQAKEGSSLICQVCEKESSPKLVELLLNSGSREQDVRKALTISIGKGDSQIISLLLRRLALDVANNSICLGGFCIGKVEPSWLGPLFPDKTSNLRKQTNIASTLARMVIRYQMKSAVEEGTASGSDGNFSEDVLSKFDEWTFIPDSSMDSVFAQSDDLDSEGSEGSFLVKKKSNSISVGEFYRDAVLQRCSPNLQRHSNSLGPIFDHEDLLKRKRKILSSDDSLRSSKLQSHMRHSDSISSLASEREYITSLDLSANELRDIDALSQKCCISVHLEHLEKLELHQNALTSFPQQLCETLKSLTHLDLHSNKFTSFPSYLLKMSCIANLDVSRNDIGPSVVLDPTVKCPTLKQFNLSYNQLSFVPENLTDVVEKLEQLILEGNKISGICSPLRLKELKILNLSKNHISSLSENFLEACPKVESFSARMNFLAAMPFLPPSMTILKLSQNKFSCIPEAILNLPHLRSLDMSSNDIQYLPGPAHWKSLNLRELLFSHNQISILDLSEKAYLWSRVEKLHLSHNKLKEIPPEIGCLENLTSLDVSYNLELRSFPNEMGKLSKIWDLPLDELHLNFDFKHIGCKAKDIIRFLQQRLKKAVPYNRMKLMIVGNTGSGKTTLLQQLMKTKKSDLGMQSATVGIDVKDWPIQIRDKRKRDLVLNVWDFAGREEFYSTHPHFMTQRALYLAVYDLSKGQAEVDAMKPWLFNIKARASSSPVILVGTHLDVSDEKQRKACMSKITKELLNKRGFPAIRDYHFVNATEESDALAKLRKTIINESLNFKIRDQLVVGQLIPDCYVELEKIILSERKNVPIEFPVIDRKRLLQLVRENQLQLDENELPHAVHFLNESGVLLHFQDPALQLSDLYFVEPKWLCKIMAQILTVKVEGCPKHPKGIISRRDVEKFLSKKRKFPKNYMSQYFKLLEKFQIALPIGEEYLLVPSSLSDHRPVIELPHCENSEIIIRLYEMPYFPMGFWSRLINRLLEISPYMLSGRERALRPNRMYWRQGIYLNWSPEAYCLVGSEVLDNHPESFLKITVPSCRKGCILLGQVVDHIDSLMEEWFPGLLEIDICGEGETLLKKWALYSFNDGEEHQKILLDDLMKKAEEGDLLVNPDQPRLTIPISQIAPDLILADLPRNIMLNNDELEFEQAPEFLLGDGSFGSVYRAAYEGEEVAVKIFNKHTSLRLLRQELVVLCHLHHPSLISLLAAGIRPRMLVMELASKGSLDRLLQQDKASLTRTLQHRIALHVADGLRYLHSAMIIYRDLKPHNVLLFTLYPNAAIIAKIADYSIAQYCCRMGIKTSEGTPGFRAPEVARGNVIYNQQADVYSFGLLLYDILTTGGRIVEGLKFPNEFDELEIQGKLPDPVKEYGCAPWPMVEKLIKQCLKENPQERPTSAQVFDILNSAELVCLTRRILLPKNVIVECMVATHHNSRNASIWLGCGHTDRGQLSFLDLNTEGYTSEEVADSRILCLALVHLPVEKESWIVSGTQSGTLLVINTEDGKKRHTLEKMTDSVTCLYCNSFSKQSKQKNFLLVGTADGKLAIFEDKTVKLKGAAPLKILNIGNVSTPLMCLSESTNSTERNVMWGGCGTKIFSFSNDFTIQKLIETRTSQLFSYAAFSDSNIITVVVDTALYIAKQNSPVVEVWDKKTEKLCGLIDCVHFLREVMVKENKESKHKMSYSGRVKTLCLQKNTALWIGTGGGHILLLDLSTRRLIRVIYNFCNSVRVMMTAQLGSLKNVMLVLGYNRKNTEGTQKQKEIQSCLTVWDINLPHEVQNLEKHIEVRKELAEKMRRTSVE

Cc1c(Nc2ncc(C(F)(F)F)c(C3CC3)n2)cnn1[C@H]1CC2C(C1)[C@H]2c1ncnn1C (stereo partly drawn) [Compound A-68, 4-cyclopropyl-N-(5-methyl-1-((1R,3s,5S,6r)-6-(1-methyl-1H-1,2,4-triazol-5-yl)bicyclo[3.1.0]hexan-3-yl)-1H-pyrazol-4-yl)-5-(trifluoromethyl)pyrimidin-2-amine]
IC50 (Table A-2): < 0.03 µM

Cc1c(Nc2ncc(C(F)(F)F)c(C3CC3)n2)cnn1Cc1ccn(C)n1 [Compound A-54, 4-cyclopropyl-N-[5-methyl-1-[(1-methylpyrazol-3-yl)methyl]pyrazol-4-yl]-5-(trifluoromethyl)pyrimidin-2-amine]
IC50 (Table A-2): < 0.03 µM

Cc1nn(C2(C#N)CC2)cc1Nc1ncc(C(F)(F)F)c(C2CC2)n1 [Compound A-47, 1-[4-[[4-cyclopropyl-5-(trifluoromethyl)pyrimidin-2-yl]amino]-3-methyl-pyrazol-1-yl]cyclopropanecarbonitrile]
IC50 (Table A-2): < 0.03 µM

Cc1nn([C@H]2CC3C(C2)[C@H]3c2ncn(C)n2)cc1Nc1ncc(C(F)(F)F)c(C2CC2)n1 (stereo partly drawn) [Compound A-69, 4-cyclopropyl-N-(3-methyl-1-((1R,3r,5S,6r)-6-(1-methyl-1H-1,2,4-triazol-3-yl)bicyclo[3.1.0]hexan-3-yl)-1H-pyrazol-4-yl)-5-(trifluoromethyl)pyrimidin-2-amine]
IC50 (Table A-2): < 0.03 µM

Cc1nn(C(C)(C)c2ccnn2C)cc1Nc1ncc(Cl)c(C2CC2)n1 [Compound A-33, 5-chloro-4-cyclopropyl-N-(3-methyl-1-(2-(1-methyl-1H-pyrazol-5-yl)propan-2-yl)-1H-pyrazol-4-yl)pyrimidin-2-amine]
IC50 (Table A-2): > 0.06 µM

CCNc1nc(Nc2cn([C@H]3C[C@H](OC(F)F)C3)nc2C)ncc1C(F)(F)F [Compound D-138]
IC50 (Table D-4): < 0.03 µM

CNc1nc(Nc2cnn(C3CCC(n4nccn4)C3)c2C)ncc1C(F)(F)F [Compound D-114]
IC50 (Table D-4): < 0.03 µM

CNc1nc(Nc2cnn([C@@H]3CCC(n4nccn4)C3)c2C)ncc1C(F)(F)F (stereo partly drawn) [Compounds D-141]
IC50 (Table D-4): < 0.03 µM

Cn1nc(C(C)(C)C#N)cc1Nc1ncc(C(F)(F)F)c(C2CC2)n1 [Compound A-5, 2-(5-((4-cyclopropyl-5-(trifluoromethyl)pyrimidin-2-yl)amino)-1-methyl-1H-pyrazol-3-yl)-2-methylpropanenitrile]
IC50 (Table A-2): 0.03 to 0.06 µM

Cc1c(Nc2nc(C3CC3)c3c(C#N)c[nH]c3n2)cnn1C(F)F [Compound C-39]
IC50 (Table C-2): < 0.05 µM

Cc1nn(C(F)(F)c2ncnn2C)cc1Nc1ncc(C(F)(F)F)c(C2CC2)n1 [Compound A-76, 4-cyclopropyl-N-[1-[difluoro-(2-methyl-1,2,4-triazol-3-yl)methyl]-3-methyl-pyrazol-4-yl]-5-(trifluoromethyl)pyrimidin-2-amine]
IC50 (Table A-2): > 0.06 µM

Cc1nn(C(C)(C)C#N)cc1Nc1nc(C2CC2)c2nc[nH]c2n1 [Compound C-9, 2-(4-((6-cyclopropyl-9H-purin-2-yl)amino)-3-methyl-1H-pyrazol-1-yl)-2-methylpropanenitrile]
IC50 (Table C-2): < 0.05 µM

CC(C)(C#N)n1cc(Nc2ncc(C(F)(F)F)c(C3CC3)n2)c(Cl)n1 [Compound A-17, 2-(3-chloro-4-((4-cyclopropyl-5-(trifluoromethyl)pyrimidin-2-yl)amino)-1H-pyrazol-1-yl)-2-methylpropanenitrile]
IC50 (Table A-2): 0.03 to 0.06 µM

FCC(CF)n1ncc(Nc2ncc(C(F)(F)F)c(C3CC3)n2)c1Cl [Compound A-45, N-[5-chloro-1-[2-fluoro-1-(fluoromethyl)ethyl]pyrazol-4-yl]-4-cyclopropyl-5-(trifluoromethyl)pyrimidin-2-amine]
IC50 (Table A-2): < 0.03 µM

Cc1nn(S(C)(=O)=O)cc1Nc1ncc(C(F)(F)F)c(C2CC2)n1 [Compound A-7, 4-cyclopropyl-N-(3-methyl-1-methylsulfonyl-pyrazol-4-yl)-5-(trifluoromethyl)pyrimidin-2-amine]
IC50 (Table A-2): < 0.03 µM

CCNc1nc(Nc2cnn([C@H]3C[C@H](n4nccn4)C3)c2C)ncc1Br [Compound D-85]
IC50 (Table D-4): < 0.03 µM

Cc1nn(C(C)(C)c2ccn(C)n2)cc1Nc1ncc(Cl)c(C2CC2)n1 [Compound A-34, 5-chloro-4-cyclopropyl-N-(3-methyl-1-(2-(1-methyl-1H-pyrazol-3-yl)propan-2-yl)-1H-pyrazol-4-yl)pyrimidin-2-amine]
IC50 (Table A-2): < 0.03 µM

CNc1nc(Nc2cnn([C@H]3C[C@@H](n4cc(F)cn4)C3)c2C)ncc1C(F)(F)F [Compound D-165]
IC50 (Table D-4): < 0.03 µM

Cc1c(Nc2ncc(C(F)(F)F)c(C3CC3)n2)cnn1C1(C)CCNC1=O (stereo not shown) [Compound A-93]
IC50 (Table A-2): < 0.03 µM

Cc1nn(C(C)(C)c2ccnn2C)cc1Nc1ncc(C(F)(F)F)c(C2CC2)n1 [Compound A-22, 4-cyclopropyl-N-(3-methyl-1-(2-(1-methyl-1H-pyrazol-5-yl)propan-2-yl)-1H-pyrazol-4-yl)-5-(trifluoromethyl)pyrimidin-2-amine]
IC50 (Table A-2): > 0.06 µM

Cc1nn(C(C)(C)C#N)cc1Nc1nc(C2CC2)c2c(Cl)c[nH]c2n1 [Compound C-22]
IC50 (Table C-2): < 0.05 µM

CNc1nc(Nc2cn(C3(c4ncn(C)n4)CC3)nc2C)ncc1C(F)(F)F [Compound D-115]
IC50 (Table D-4): > 0.06 µM
